The source of these data is US20220236255A1, “Self-Contained Responsive Biological Systems and Methods” (Arizona Board of Regents on Behalf of the University of …, priority 2019, published 2022).

Like-named read-outs stand apart in the source and are kept apart here.

Assay [1] has as its system SK-MEL-28 cells. The assay can be described thus: Modified MTT drug response assay, withaferin A, 72 hours. It is filed as cell-based, human. The conditions noted are these: WFA 72 hours, read-out: IC50 (concentration resulting in 50% of cell death). As to the method: A modified MTT experiment was developed from CellTiter 96 NonRadioactive Cell Proliferation Assay kit (Promega). Treated leaves were cut into 1×1 cm sized pieces and fit to the bottom of an untreated 48-well plate. 0.75×0.75 cm inserts were placed in the well on the top of the leaf, cells were plated at 10,000 cells/insert and incubated at 37° C. with 5% CO2 atmosphere. After 24 hours, the inserts were removed and leaves with attached cells were cut and re-plated into non-treated 96-well plates. In parallel, cells were also directly seeded into a treated 96-well plate at a concentration of 5000 cells/well. The medium was refreshed every 72 hours. Tetrazolium component was added at day 1, 3, 5 and 7 and absorbance of formazan product was measured at 570 nm by using Epoch microplate spectrophotometer (Biotek Instruments). For the drug response assay, withaferin A (WFA) was added at concentrations ranging from 0.156 to 40 μM and incubated for 72 hours prior to the addition of the […]. […]
Microphthalmia-associated Transcription Factor (MITF) is a lineage-determining transcription factor critical for regulation of the melanocytic lineage during development and implicated as both a melanoma tumor suppressor and oncogene. […] Gene expression was then analyzed by qRT-PCR for MITF and three genes of the MITF-high expression signature (SOX10, MLANA and TYR). […]
A general note: Formazan colour is commonly taken as a measure of viable cells.

For assay [2], the system named is Glast, SOX2 and Nestin mRNA in U87/NPC organoids. Description: qRT-PCR of biomarker mRNA in everolimus-treated irradiated organoids. It is filed as cell-based, human. The conditions noted are these: irradiated organoids pre-treated with everolimus; qRT-PCR at day 10 after irradiation. The procedure: (§1) Thus, the effect of a rapamycin analog, everolimus, on human cells was investigated using an in vitro organoids model. GFP-tagged glioblastoma U87 cells were cultured in presence of RFP-tagged neural progenitor cells (NPCs), differentiated from dermal fibroblasts reprogrammed to induced pluripotent stem cells, to form organoids. The organoids were exposed to 10 nM everolimus for 24 hours before 2 Gy-irradiation. […] This has been confirmed by qRT-PCR where Glast mRNA level (glioblastoma biomarker) decreases whereas SOX2 and Nestin mRNA levels (NPCs biomarkers) increase in irradiated organoids pre-treatment with everolimus (FIGS. 27A-27C).
Background: Quantitative PCR measures a nucleic acid by following its amplification.

The subject of assay [3] is RFP-transfected dermal fibroblasts spheroids. The assay can be described thus: Growth of irradiated dermal fibroblast spheroids pre-treated with everolimus. It is filed as cell-based. The conditions noted are these: everolimus 24 h before 4 Gy-irradiation; growth monitored for 8 days. As to the method:
FIG. 33 RFP-transfected dermal fibroblasts spheroids have been exposed to different concentrations of everolimus 24 h before 4 Gy-irradiation and their growth monitored for 8 days.

Assay [4] concerns organoids of GFP-tagged glioblastoma U87 cells and RFP-tagged neural progenitor cells (NPCs). The assay can be described thus: Organoid fluorescence (cell viability) after everolimus pre-treatment and irradiation. It is filed as cell-based, human. The conditions noted are these: 10 nM everolimus for 24 hours before 2 Gy-irradiation; over one week. As to the method: as §1

For the compound `CC1=C(CO)C(=O)O[C@@H]([C@@H](C)[C@H]2CC[C@H]3[C@@H]4C[C@H]5O[C@]56[C@@H](O)C=CC(=O)[C@]6(C)[C@H]4CC[C@]23C)C1` [WFA, withaferin A], the IC50 amounted to 5.2 µM in assay [1] (SK-MEL-28 cells seeded on decellularized spinach leaf scaffold) and 1.1 µM in assay [1] (SK-MEL-28 cells seeded on stiff substrate (TCPS)).
In the case of `CO[C@H]1C[C@@H]2CC[C@@H](C)[C@@](O)(O2)C(=O)C(=O)N2CCCC[C@H]2C(=O)O[C@H]([C@H](C)C[C@@H]2CC[C@@H](OCCO)[C@H](OC)C2)CC(=O)[C@H](C)/C=C(\C)[C@@H](O)[C@@H](OC)C(=O)[C@H](C)C[C@H](C)/C=C/C=C/C=C/1C` [everolimus], in assay [2], the “Glast mRNA level (glioblastoma biomarker)” value is on record as “decreases”, the “Nestin mRNA level (NPCs biomarker)” value is recorded as “increase” and the “SOX2 mRNA level (NPCs biomarker)” value is recorded as “increase”. Further, the “growth of irradiated spheroids compared to non-pretreated spheroids” value in assay [3] is reported as “increased”. Moreover, in assay [4], the “GFP fluorescence intensity (U87 cells) compared to vehicle-treated organoids after irradiation” value is listed as “decreases” and the “RFP fluorescence signal (NPCs) compared to vehicle-treated organoids after irradiation” value is given as “increases”.
